Like-named read-outs stand apart in the source and are kept apart here.
Experiments:
[1] = system: non-expressing oocytes; assay: cells; assay type: cell-based, Xenopus laevis; settings: Xenopus laevis, total [3H]CQ transport; for inhibition at 500 µM: [test solute] = 0.5 mM; for inhibition at 1000 µM: [test solute] = 1 mM; for inhibition at 2000 µM: [test solute] = 2 mM
Summary of the method: (§1)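 Inward transport into oocyte cytosol from pH 5.5 medium models PfCRT efflux from the acidic digestive vacuole. Incubation 1.5 h, 27.5 °C; termination by ice-cold washes; lysate radioactivity counted.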

[2] = biological target: PfCRT^3D7 (Plasmodium falciparum, UniProt Q8IBZ9); assay: cell-based; assay type: cell-based; settings: total [3H]CQ transport; for inhibition at 500 µM: [test solute] = 0.5 mM; for inhibition at 1000 µM: [test solute] = 1 mM; for inhibition at 2000 µM: [test solute] = 2 mM
Chain of PfCRT^3D7 (Q8IBZ9 59-398): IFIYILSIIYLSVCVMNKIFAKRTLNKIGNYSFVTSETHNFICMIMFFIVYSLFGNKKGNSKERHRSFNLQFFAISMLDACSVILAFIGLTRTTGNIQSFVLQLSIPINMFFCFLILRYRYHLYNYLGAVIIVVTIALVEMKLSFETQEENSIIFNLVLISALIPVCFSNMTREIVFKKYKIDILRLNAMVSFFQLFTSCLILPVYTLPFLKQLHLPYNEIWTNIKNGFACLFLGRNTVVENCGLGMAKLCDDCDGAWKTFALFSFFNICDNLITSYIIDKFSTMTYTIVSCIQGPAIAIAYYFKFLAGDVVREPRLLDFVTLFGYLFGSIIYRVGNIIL
Summary of the method: as §1

[3] = biological target: PfCRT^Dd2 (Plasmodium falciparum, UniProt Q9N623, A220S/I356T/K76T/M74I/N326S/N75E/Q271E/R371I); assay: [3H]CQ uptake into Xenopus oocytes, cis-inhibition by unlabelled solute; assay type: cell-based
Chain of PfCRT^Dd2 (Q9N623 whole entry A220S/I356T/K76T/M74I/N326S/N75E/Q271E/R371I): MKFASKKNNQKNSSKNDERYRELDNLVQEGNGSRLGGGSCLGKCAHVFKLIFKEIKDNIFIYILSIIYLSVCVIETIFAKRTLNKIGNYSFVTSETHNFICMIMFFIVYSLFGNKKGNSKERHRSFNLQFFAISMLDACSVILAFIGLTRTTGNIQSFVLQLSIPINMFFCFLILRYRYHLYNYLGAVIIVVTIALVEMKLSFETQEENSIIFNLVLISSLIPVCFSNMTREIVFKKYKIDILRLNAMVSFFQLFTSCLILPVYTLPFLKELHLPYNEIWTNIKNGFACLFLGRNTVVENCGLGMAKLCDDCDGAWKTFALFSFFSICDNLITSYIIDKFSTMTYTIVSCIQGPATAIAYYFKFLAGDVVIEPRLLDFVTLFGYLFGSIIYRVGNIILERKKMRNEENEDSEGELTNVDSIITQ
Summary of the method: as §1

[4] = biological target: PfCRT^Ecu1110 (Plasmodium falciparum, UniProt Q9N623, A220S/I356L/K76T/N326D); assay: as above; assay type: cell-based
Chain of PfCRT^Ecu1110 (Q9N623 whole entry A220S/I356L/K76T/N326D): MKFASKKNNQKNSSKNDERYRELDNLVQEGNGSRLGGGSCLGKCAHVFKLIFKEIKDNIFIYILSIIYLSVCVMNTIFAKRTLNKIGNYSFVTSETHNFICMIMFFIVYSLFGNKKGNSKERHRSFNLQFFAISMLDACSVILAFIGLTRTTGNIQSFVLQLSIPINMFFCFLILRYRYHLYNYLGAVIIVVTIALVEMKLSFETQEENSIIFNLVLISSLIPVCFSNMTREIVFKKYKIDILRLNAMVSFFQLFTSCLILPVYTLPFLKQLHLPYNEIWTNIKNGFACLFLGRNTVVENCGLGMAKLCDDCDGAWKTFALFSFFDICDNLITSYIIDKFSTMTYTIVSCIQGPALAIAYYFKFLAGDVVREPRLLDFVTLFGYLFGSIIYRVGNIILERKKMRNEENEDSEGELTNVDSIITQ
Summary of the method: as §1

[5] = Oocyte, mean ± SEM, SEM, read-out: Uptake of [3H]CQ (% PfCRTDd2 control), cis-inhibition, non-expressing oocytes
[6] = non-expressing oocytes, normalised to the oocyte type control, read-out: Uptake of [3H]CQ (% non-expressing oocyte control), cis-inhibition
[7] = PfCRT3D7 oocytes, normalised to the oocyte type control, read-out: Uptake of [3H]CQ (% PfCRT3D7 control), cis-inhibition
[8] = mean ± SEM, SEM, read-out: Uptake of [3H]CQ (% PfCRTDd2 control), cis-inhibition, PfCRT3D7
[9] = read-out: PfCRT-mediated [3H]CQ transport, cis-inhibition (% PfCRTDd2 control)
[10] = read-out: Uptake of [3H]CQ (% PfCRTDd2 control), cis-inhibition
[11] = read-out: Uptake of [3H]CQ (% PfCRTDd2 control), cis-inhibition, PfCRTDd2, SEM
[12] = read-out: [3H]CQ transport (% PfCRTDd2 control), cis-inhibition, PfCRTDd2, SEM
[13] = read-out: PfCRT-mediated [3H]CQ transport, cis-inhibition (% PfCRTEcu1110 control)
[14] = read-out: Uptake of [3H]CQ (% PfCRTDd2 control), cis-inhibition, PfCRTEcu1110, SEM
[15] = read-out: Uptake of [3H]CQ (% PfCRTEcu1110 control), cis-inhibition

## CC(C)C[C@H](N)C(=O)O [L-leucine]
[1]; [5]
  inhibition at 500 µM: 3.2 ± 0.08%
  inhibition at 1000 µM: 2.8 ± 0.07%
  inhibition at 2000 µM: 2.9 ± 0.04%
[1]; [6]
  inhibition at 500 µM: 100 ± 3.7%
  inhibition at 1000 µM: 99 ± 4.6%
  inhibition at 2000 µM: 99 ± 5.7%
[2]; [7]
  inhibition at 500 µM: 98 ± 3.6%
  inhibition at 1000 µM: 100 ± 4.7%
  inhibition at 2000 µM: 99 ± 3.6%
[2]; [8]
  inhibition at 500 µM: 3.2 ± 0.08%
  inhibition at 1000 µM: 3.1 ± 0.08%
  inhibition at 2000 µM: 3.8 ± 0.05%
[3]; [9]
  inhibition at 500 µM: 98 ± 4.7%
  inhibition at 1000 µM: 96 ± 4.2%
  inhibition at 2000 µM: 98 ± 4.7%
[3]; [10]
  inhibition at 500 µM: 100 ± 3.8%
  inhibition at 1000 µM: 98 ± 3.1%
  inhibition at 2000 µM: 100 ± 1.9%
[3]; [11]
  inhibition at 500 µM: 100 ± 3.8%
  inhibition at 1000 µM: 98 ± 3.1%
  inhibition at 2000 µM: 100 ± 1.9%
[3]; [12]
  inhibition at 500 µM: 98 ± 4.7%
  inhibition at 2000 µM: 98 ± 4.7%
[4]; [13]
  inhibition at 500 µM: 99 ± 5.1%
  inhibition at 1000 µM: 97 ± 3.1%
  inhibition at 2000 µM: 99 ± 2.1%
[4]; [14]
  inhibition at 500 µM: 33 ± 1.6%
  inhibition at 1000 µM: 32 ± 1.3%
  inhibition at 2000 µM: 33 ± 1.5%
[4]; [15]
  inhibition at 500 µM: 102 ± 4.2%
  inhibition at 1000 µM: 98 ± 4.2%
